According to patent US12077503B2, “Substituted cyclic amides and their use as herbicides” (FMC CORPORATION, priority 2015, dated 2024):

How the values were obtained:
Assay type in all cases: in vivo
Kochia (Kochia scoparia) [1] = assay: Test A preemergence; conditions: Bassia scoparia, pre-emergence, 240 h, 0 to 100 scale where 0 is no effect and 100 is complete control, read-out: Kochia plant response rating
How it was run: (§1)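 Preemergence soil spray on seeded pots or post-emergence spray on 1–2 leaf plants, in loam–sand blend. Greenhouse ~10 d. Visual rating 0–100 against untreated plants.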

[2] = system: barnyardgrass (Echinochloa crus-galli); assay: Test A preemergence; conditions: Echinochloa crus-galli, pre-emergence, 240 h, Preemergence
How it was run: as §1

[3] = system: giant foxtail (Setaria faberii); assay: Test A preemergence; conditions: Setaria faberi, pre-emergence, 240 h, Preemergence
How it was run: as §1

[4] = system: pigweed (Amaranthus retroflexus); assay: Test A preemergence; conditions: Amaranthus retroflexus, pre-emergence, 240 h, 0 to 100 scale where 0 is no effect and 100 is complete control, read-out: Pigweed plant response rating
[5] = system: ragweed (common ragweed, Ambrosia elatior); assay: Test A preemergence; conditions: Ambrosia artemisiifolia, pre-emergence, 240 h, 0 to 100 scale where 0 is no effect and 100 is complete control, read-out: Ragweed plant response rating
How it was run: as §1

[6] = system: ryegrass, Italian (Italian ryegrass, Lolium multiflorum); assay: Test A preemergence; conditions: Lolium multiflorum, pre-emergence, 240 h, 0 to 100 scale where 0 is no effect and 100 is complete control, read-out: Ryegrass, Italian plant response rating
How it was run: as §1

[7] = system: Galium (catchweed bedstraw, Galium aparine); assay: Test A postemergence; conditions: Galium, post-emergence, 240 h
How it was run: as §1

Kochia (Kochia scoparia) [8] = assay: Test A postemergence; conditions: Bassia scoparia, post-emergence, 240 h
How it was run: as §1

[9] = system: barnyardgrass (Echinochloa crus-galli); assay: Test A postemergence; conditions: Echinochloa crus-galli, post-emergence, 240 h
How it was run: as §1

[10] = system: blackgrass (Alopecurus myosuroides); assay: Test A postemergence; conditions: Alopecurus myosuroides, post-emergence, 240 h
How it was run: as §1

corn (Zea mays) = assay: Test A postemergence; conditions: Zea mays, post-emergence, 240 h
How it was run: as §1

[11] = system: giant foxtail (Setaria faberii); assay: Test A postemergence; conditions: Setaria faberi, post-emergence, 240 h
How it was run: as §1

[12] = system: pigweed (Amaranthus retroflexus); assay: Test A postemergence; conditions: Amaranthus retroflexus, post-emergence, 240 h
How it was run: as §1

[13] = system: ragweed (common ragweed, Ambrosia elatior); assay: Test A postemergence; conditions: Ambrosia artemisiifolia, post-emergence, 240 h
How it was run: as §1

[14] = system: ryegrass, Italian (Italian ryegrass, Lolium multiflorum); assay: Test A postemergence; conditions: Lolium multiflorum, post-emergence, 240 h
How it was run: as §1

[15] = system: wheat (Triticum aestivum); assay: Test A postemergence; conditions: Triticum aestivum, post-emergence, 240 h
How it was run: as §1

[16] = system: barnyardgrass (Echinochloa crus-galli); assay: Test B flooded paddy test; conditions: Echinochloa crus-galli, 250 g ai/ha, Flood; 0 to 100 scale where 0 is no effect and 100 is complete control; read-out: Barnyardgrass plant response rating
How it was run: (§2)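 Compound goes directly into floodwater once pots are flooded 3 cm above soil, targeting plants at two leaves; the water depth is then held for the test duration. Plants sit 13–15 d in a greenhouse and are rated visually, 100 denoting complete control.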

[17] = system: ducksalad (Heteranthera limosa); assay: Test B flooded paddy test; conditions: Heteranthera limosa, 250 g ai/ha, Flood; 0 to 100 scale where 0 is no effect and 100 is complete control; read-out: Ducksalad plant response rating
How it was run: as §2

rice (Oryra sativa) = assay: Test B flooded paddy test; conditions: Oryza sativa, 250 g ai/ha, Flood; 0 to 100 scale where 0 is no effect and 100 is complete control; read-out: Rice plant response rating
How it was run: as §2

[18] = system: sedge, umbrella (small-flower umbrella sedge, Cyperus difformis); assay: Test B flooded paddy test; conditions: Cyperus difformis, 250 g ai/ha, Flood; 0 to 100 scale where 0 is no effect and 100 is complete control; read-out: Sedge, Umbrella plant response rating
How it was run: as §2

[19] = 125 g ai/ha, preemergence, approx. 10 d

Cc1ccc([C@H]2CN(C)C(=O)[C@@H]2C(=O)Nc2cnccc2C(F)(F)F)cc1 [Compound 1067] was tested. Which pest or weed control at 31 g/ha (Kochia (Kochia scoparia) [1]; 31 g ai/ha, Preemergence) did it give?
Its pest or weed control at 31 g/ha is 0%.

And the pest or weed control at 125 g/ha (Kochia (Kochia scoparia) [1]; [19])?
Its pest or weed control at 125 g/ha is 70%.

What about the pest or weed control at 31 g/ha ([2]; 31 g ai/ha, 0 to 100 scale where 0 is no effect and 100 is complete control, read-out: Barnyardgrass plant response rating) of the same molecule?
Its pest or weed control at 31 g/ha is 30%.

And the pest or weed control at 125 g/ha ([2]; 125 g ai/ha, visual injury rating after approximately 10 d, read-out: Barnyardgrass plant response rating (0 to 100 scale, 0 is no effect, 100 is complete control))?
The pest or weed control at 125 g/ha was 100%.

And the pest or weed control at 31 g/ha ([3]; 31 g ai/ha, 0 to 100 scale where 0 is no effect and 100 is complete control, read-out: Foxtail, Giant plant response rating)?
The pest or weed control at 31 g/ha was 90%.

What about the pest or weed control at 125 g/ha ([3]; 125 g ai/ha, visual injury rating after approximately 10 d, read-out: Foxtail, Giant plant response rating (0 to 100 scale, 0 is no effect, 100 is complete control)) of the same molecule?
Its pest or weed control at 125 g/ha is 100%.

And the pest or weed control at 31 g/ha ([4]; 31 g ai/ha, Preemergence)?
Its pest or weed control at 31 g/ha is 0%.

What about the pest or weed control at 125 g/ha [4, 19] of the same molecule?
Its pest or weed control at 125 g/ha is 0%.

What about the pest or weed control at 31 g/ha ([5]; 31 g ai/ha, Preemergence) of the same molecule?
The pest or weed control at 31 g/ha was 0%.

What about the pest or weed control at 125 g/ha [5, 19] of the same molecule?
The pest or weed control at 125 g/ha was 60%.

What about the pest or weed control at 31 g/ha ([6]; 31 g ai/ha, Preemergence) of the same molecule?
The pest or weed control at 31 g/ha was 20%.

And the pest or weed control at 125 g/ha [6, 19]?
The pest or weed control at 125 g/ha was 70%.

What about the pest or weed control at 125 g/ha ([7]; 125 g ai/ha, postemergence, visual injury on 0 to 100 scale (0 no effect, 100 complete control), approx. 10 d, read-out: Galium plant response rating) of the same molecule?
Its pest or weed control at 125 g/ha is 50%.

What about the pest or weed control at 31 g/ha ([7]; Postemergence, 31 g ai/ha, visual injury after approx. 10 d, 0 to 100 scale, 0 no effect, 100 complete control, read-out: Plant response rating, Galium) of the same molecule?
The pest or weed control at 31 g/ha was 0%.

What about the pest or weed control at 125 g/ha (Kochia (Kochia scoparia) [8]; 125 g ai/ha, postemergence, visual injury on 0 to 100 scale (0 no effect, 100 complete control), approx. 10 d, read-out: Kochia plant response rating) of the same molecule?
Its pest or weed control at 125 g/ha is 30%.

What about the pest or weed control at 31 g/ha (Kochia (Kochia scoparia) [8]; Postemergence, 31 g ai/ha, visual injury after approx. 10 d, 0 to 100 scale, 0 no effect, 100 complete control, read-out: Plant response rating, Kochia) of the same molecule?
Its pest or weed control at 31 g/ha is 0%.

What about the pest or weed control at 125 g/ha ([9]; 125 g ai/ha, postemergence, visual injury on 0 to 100 scale (0 no effect, 100 complete control), approx. 10 d, read-out: Barnyardgrass plant response rating) of the same molecule?
Its pest or weed control at 125 g/ha is 60%.

And the pest or weed control at 31 g/ha ([9]; Postemergence, 31 g ai/ha, visual injury after approx. 10 d, 0 to 100 scale, 0 no effect, 100 complete control, read-out: Plant response rating, Barnyardgrass)?
Its pest or weed control at 31 g/ha is 20%.

What about the pest or weed control at 125 g/ha ([10]; 125 g ai/ha, postemergence, visual injury on 0 to 100 scale (0 no effect, 100 complete control), approx. 10 d, read-out: Blackgrass plant response rating) of the same molecule?
Its pest or weed control at 125 g/ha is 50%.

And the pest or weed control at 31 g/ha ([10]; Postemergence, 31 g ai/ha, visual injury after approx. 10 d, 0 to 100 scale, 0 no effect, 100 complete control, read-out: Plant response rating, Blackgrass)?
The pest or weed control at 31 g/ha was 0%.

And the plant injury at 125 g/ha (corn (Zea mays); 125 g ai/ha, postemergence, visual injury on 0 to 100 scale (0 no effect, 100 complete control), approx. 10 d, read-out: Corn plant response rating)?
The plant injury at 125 g/ha was 0%.

What about the Corn plant response rating (crop injury, 0 = no effect, 100 = complete kill) at 31 g/ha (corn (Zea mays); Postemergence, 31 g ai/ha, visual injury after approx. 10 d, 0 to 100 scale, 0 no effect, 100 complete control) of the same molecule?
The Corn plant response rating (crop injury, 0 = no effect, 100 = complete kill) at 31 g/ha was 0%.

What about the pest or weed control at 125 g/ha ([11]; 125 g ai/ha, postemergence, visual injury on 0 to 100 scale (0 no effect, 100 complete control), approx. 10 d, read-out: Foxtail, Giant plant response rating) of the same molecule?
The pest or weed control at 125 g/ha was 90%.

What about the pest or weed control at 31 g/ha ([11]; Postemergence, 31 g ai/ha, visual injury after approx. 10 d, 0 to 100 scale, 0 no effect, 100 complete control, read-out: Plant response rating, Foxtail, Giant) of the same molecule?
The pest or weed control at 31 g/ha was 30%.

What about the pest or weed control at 125 g/ha ([12]; 125 g ai/ha, postemergence, visual injury on 0 to 100 scale (0 no effect, 100 complete control), approx. 10 d, read-out: Pigweed plant response rating) of the same molecule?
The pest or weed control at 125 g/ha was 0%.

What about the pest or weed control at 31 g/ha ([12]; Postemergence, 31 g ai/ha, visual injury after approx. 10 d, 0 to 100 scale, 0 no effect, 100 complete control, read-out: Plant response rating, Pigweed) of the same molecule?
Its pest or weed control at 31 g/ha is 0%.

What about the pest or weed control at 125 g/ha ([13]; 125 g ai/ha, postemergence, visual injury on 0 to 100 scale (0 no effect, 100 complete control), approx. 10 d, read-out: Ragweed plant response rating) of the same molecule?
The pest or weed control at 125 g/ha was 0%.

What about the pest or weed control at 31 g/ha ([13]; Postemergence, 31 g ai/ha, visual injury after approx. 10 d, 0 to 100 scale, 0 no effect, 100 complete control, read-out: Plant response rating, Ragweed) of the same molecule?
The pest or weed control at 31 g/ha was 0%.

And the pest or weed control at 125 g/ha ([14]; 125 g ai/ha, postemergence, visual injury on 0 to 100 scale (0 no effect, 100 complete control), approx. 10 d, read-out: Ryegrass, Italian plant response rating)?
Its pest or weed control at 125 g/ha is 0%.

What about the pest or weed control at 31 g/ha ([14]; Postemergence, 31 g ai/ha, visual injury after approx. 10 d, 0 to 100 scale, 0 no effect, 100 complete control, read-out: Plant response rating, Ryegrass, Italian) of the same molecule?
Its pest or weed control at 31 g/ha is 0%.

And the plant injury at 125 g/ha ([15]; 125 g ai/ha, postemergence, visual injury on 0 to 100 scale (0 no effect, 100 complete control), approx. 10 d, read-out: Wheat plant response rating)?
The plant injury at 125 g/ha was 40%.

What about the plant injury at 31 g/ha ([15]; Postemergence, 31 g ai/ha, visual injury after approx. 10 d, 0 to 100 scale, 0 no effect, 100 complete control, read-out: Plant response rating, Wheat) of the same molecule?
Its plant injury at 31 g/ha is 0%.

And the pest or weed control at 250 g/ha [16]?
The pest or weed control at 250 g/ha was 20%.

What about the pest or weed control at 250 g/ha [17] of the same molecule?
Its pest or weed control at 250 g/ha is 85%.

What about the pest or weed control at 250 g/ha (rice (Oryra sativa)) of the same molecule?
Its pest or weed control at 250 g/ha is 0%.

What about the pest or weed control at 250 g/ha [18] of the same molecule?
Its pest or weed control at 250 g/ha is 0%.
